Experimental findings from ChEMBL document CHEMBL4049463, “Repurposing Suzuki Coupling Reagents as a Directed Fragment Library Targeting Serine Hydrolases and Related Enzymes” (J Med Chem, 2017) are described below.

Structures are written as SMILES.

The IC50 is the concentration that gives 50% inhibition. Low readings indicate greater potency in that assay, high ones weaker potency in that assay.

The target of the first test is Autotaxin (Mus musculus) (UniProt Q9R1E6).
`OB(O)c1ccc(Cl)cc1`: the IC50 is 3.16 µM.
Turning to `O=C(O)c1ccc2cc[nH]c2c1`, the IC50 is 794 µM.
Still for that read-out and setting: the value for `COc1ccc(B(O)O)cc1` was 5.01 µM.
In turn, `OB(O)c1cccc(O)c1` gave an IC50 of 10 µM. Against the preceding molecule, the IC50 is about 2-fold higher.
The same measure, in the same setting: for `Oc1ccc(-n2ccnc2)cc1` the value was 501 µM; for `OB(O)c1ccc(O)cc1`, 10 µM.
The same measure, in the same setting: for `COc1ccccc1B(O)O` the value was 3.98 µM; for `OCc1cccc(B(O)O)c1`, 12.6 µM; for `Oc1ccc2nonc2c1`, 200 µM.
`NCc1cccc(O)c1`: the midpoint of inhibition, the IC50, lay at 1260 µM. This IC50 is about 6.3-fold higher than that of the molecule before.
For `OB(O)c1ccc2cc[nH]c2c1`, half-maximal inhibition (IC50) required 2 µM. Compared with the last molecule, the IC50 is about 630-fold lower.
The same measure, in the same setting: the value for `Nc1cccc(-c2nnc[nH]2)c1` was 251 µM; that for `OB(O)c1ccccc1OCc1cccc(Cl)c1` was 1 µM.
Consider `OB(O)c1ccc2nonc2c1`, for which inhibition was half-maximal at 10 µM (IC50).
Consider `CS(=O)(=O)c1ccc(B(O)O)cc1`, for which the 50% inhibitory concentration (IC50) is 5.01 µM.
The same measure, in the same setting: for `COc1cc(COc2ccc(B(O)O)cc2Cl)cc(OC)c1` the value was 0.316 µM.
Still for that read-out and setting: for `N#CCc1cccc(B(O)O)c1` the value was 5.01 µM.
Same read-out and setting: for `COCCc1ccc(OCc2cccc(B(O)O)c2)cc1` the value was 0.501 µM; for `N#C/C=C/c1cccc(B(O)O)c1`, 1.58 µM; for `N#Cc1cccc(B(O)O)c1`, 20 µM.
With `COc1cccc(B(O)O)c1`, the IC50 is 20 µM.
On the same count and under the same terms, the value for `N#Cc1ccc(B(O)O)cc1` was 5.01 µM; that for `CS(=O)(=O)c1ccc(O)cc1` was 631 µM; that for `OB(O)c1ccccc1` [PHENYLBORONIC ACID] was 10 µM.

The next test has as its target Autotaxin (Mus musculus, UniProt Q9R1E6). In words: Inhibition of mouse ATX using TG-mTMP as substrate after 2 hrs by fluorometric analysis.
`OB(O)c1cccc(CCN2CCN(c3nc(O)c(Cc4ccc(Cl)c(Cl)c4)s3)CC2)c1` had an IC50 of 0.0126 µM.
`OB(O)c1ccc(CCCN2CCC(c3nc(O)c(Cc4ccc(Cl)c(Cl)c4)s3)CC2)cc1` gave a 50% inhibitory concentration (IC50) of 0.02 µM.
Same read-out and setting: for `OB(O)c1ccccc1CCN1CCN(c2nc(O)c(Cc3ccc(Cl)c(Cl)c3)s2)CC1` the value was 0.631 µM.
